In patent US20080255244A1, “CaM Kinase II Inhibitor Improves Retinoic Acid Therapy and Inhibits the Proliferation of Myeloid Leukemia Cells” (Fred Hutchinson Cancer Research Center, priority 2007, published 2008):

How the values were obtained:
[1] = system: Stat3 transcriptional activity in K562 cells; assay: Stat3 response element luciferase reporter in K562 cells; format: cell-based, human; conditions: 48 hours of culture
Protocol: FIG. 13. Stat3 is directly phosphorylated and activated by CaMKIIγ at Ser727. (A, i). Cell lysates from the indicated human leukemia cell lines were subjected to Western blots utilizing the indicated Stat3 antibodies. ii). Cell lysates from the same primary AML samples depicted in FIG. 1B were subjected to Western blots utilizing the indicated Stat3 antibodies. B). The IL-3 dependent TonB210.1 cells were deprived of IL-3 for 24 hours. The cells were then treated with the indicated compounds immediately prior to the addition of doxycycline. After an additional 24 hours cell lysates were harvested and subjected to Western blots with the indicated Stat3 antibodies. C). K562 cells were electroporated with a luciferase reporter driven by a Stat3 response element. The indicated concentrations of KN93 and the Stat 3 inhibitor, cucurbitacin I, were added and relative luciferase activity determined on cell lysates following 48 hours of culture. D, i) K562 cell lysates were immunoprecipitated with control IgG or a Stat3 antibody. […]
Transient transfections and luciferase assays. […] Stat3 transcriptional activity was determined in K562 cells transfected with the pSIE-tk-LUC luciferase reporter which harbors a Stat3 binding site ([…]). […]

KG-1 cells = assay: KG-1 proliferation in liquid suspension culture; format: cell-based, human
Protocol: FIG. 11. […] (A) K562 cells were seeded in liquid suspension culture at 5×10^4 cells/ml in the presence or absence of the indicated concentration of compounds, and cell counts were obtained at the indicated time. (B) The indicated myeloid leukemia cell lines were seeded in liquid suspension culture at 5×10^4 cells/ml in the presence or absence of KN93, and cell counts obtained at the indicated time. (C) K562 cells were electroporated with the LXSN expression vector harboring the kinase dead, Lys^43 mutated, truncated CaMKII construct (kdCaMKII) as well as with the control (empty) LXSN vector. The electroporated cells were diluted into 96 well plates in liquid suspension culture in the presence of G418 (1 mg/ml). Following eight days of culture the total number of discrete, actively proliferating G418 resistant colonies within individual wells was determined.
Cell lines. All leukemia cell lines are cultured at 37° in RPMI supplemented with 5% heat-inactivated fetal calf serum.

K562 cells [2] = assay: Western blots of signal transduction pathways in K562 cells; format: cell-based, human; conditions: K562 cultured in KN93
Protocol: FIG. 12. CaMKII regulates multiple signal transduction pathways in myeloid cells. (A,B) Lysates from K562 cells cultured for the indicated time in KN93 were subjected to Western blots. (C) The K562 cells transduced as described in Materials and Methods with either (i) the doxycycline (DOX) inducible expression vector/transactivator harboring the full length, Lys^43 mutated, kinase dead CaMKIIγ (kdCaMKIIγ (Tet-on)) or (ii) the CaMKII shRNA generating plasmids, were cultured in liquid suspension in the presence or absence of DOX as indicated, and cell counts obtained after 48 hours. (D) Lysates from K562 cells transduced with the indicated vectors were subjected to Western blots utilizing the indicated antibodies. For lanes 2 and 4 doxycycline (DOX) treatment was for two days.
Antibodies and Western blots. Protein extracts, immunoprecipitations and Western blots were performed as previously detailed (Si J, Collins S J. IL-3-induced enhancement of retinoic acid receptor activity is mediated through Stat5, which physically associates with retinoic acid receptors in an IL-3-dependent manner. Blood 100: 4401-9 (2002)). Antibodies against CaMKI, CaMKIIγ, CaMKIV, c-myc, Stat3, Stat5, calmodulin, as well as the phosphospecific CaMKII (T286, 287) and phosphospecific CaMKI (T177) antibodies were from Santa Cruz Biotechnology. Antibodies against phospho-Stat1 (Ser727), phospho-Stat3 (Ser727 and Tyr 705), phospho-Stat5 (Tyr 694), phospho-p44/42 MAP kinase (Thr202/Tyr 204), p44/42 MAP kinase, phospho-p38 MAP kinase (Thr 180/Tyr 182), phospho-GSK3β (Ser9) were from Cell Signaling Technology. Antibodies against Stat1, GSK3β, β-catenin, PP2Ac, and cyclin D1 were from BD Biosciences.

K562 cells [3] = assay: K562 proliferation in liquid suspension culture (cell counts); format: cell-based, human
[4] = system: HL60R cells (mutated RARα); assay: Differentiation of HL60R cells; format: cell-based, human; conditions: HL60R harbor a mutated RARα
Text: (§1) Pharmacological CaMK inhibitors trigger myeloid leukemia cell differentiation. Particularly compelling evidence for the physiological importance of the CaMKII—mediated regulation of RAR activity is our experimental observation that KN-62, a pharmacological inhibitor of the CaMKs, enhances both RAR transcriptional activity (FIG. 1B) and the differentiation of certain myeloid leukemia cell lines (FIG. 7). Acute myelogenous leukemia (AML) is a heterogenous disease, and successful therapy with RA has been generally confined to those leukemias harboring RARα chromosome translocations.

MPRO cell line = assay: Granulocytic differentiation of MPRO cell line; format: cell-based; conditions: single agent; not shown
Text: Thus the CaMK inhibitor KN-62 not only enhances RAR transcriptional activity but either as a single agent or in combination with relatively low doses of RA can induce/enhance the differentiation of different myeloid leukemia cell lines.

KCL-22 cells = assay: Differentiation of KCL-22 cells; format: cell-based, human; conditions: preliminary studies; not shown
Text: as §1

**Q.** `COc1ccc(S(=O)(=O)N(CCO)c2ccccc2CN(C)C/C=C/c2ccc(Cl)cc2)cc1` [KN-93] was tested. Which “Stat3 responsive reporter activity” value [1] did it give?
**A.** inhibited

**Q.** What about the cell proliferation (KG-1 cells) of the same compound?
**A.** inhibition

**Q.** What about the “cell viability or morphologic differentiation” value (KG-1 cells) of the same compound?
**A.** without any significant effect

**Q.** And the “GSK3β Ser9 phosphorylation” value (K562 cells [2])?
**A.** marked reduction

**Q.** And the “activation (phosphorylation) of p38” value (K562 cells [2])?
**A.** decrease

**Q.** What about the “activation (phosphorylation) of pMAPK p44/42” value (K562 cells [2]) of the same compound?
**A.** decrease

**Q.** And the “activation (phosphorylation) of pStat3 (Y705, S727)” value (K562 cells [2])?
**A.** decrease

**Q.** What about the “activation (phosphorylation) of pStat5 (Y694)” value (K562 cells [2]) of the same compound?
**A.** decrease

**Q.** And the c-myc protein level (K562 cells [2])?
**A.** reduction

**Q.** What about the “cyclin D1 protein level” value (K562 cells [2]) of the same compound?
**A.** reduction

**Q.** And the “expression of β-catenin” value (K562 cells [2])?
**A.** marked reduction

**Q.** What about the “total levels of these phosphorylated proteins” value (K562 cells [2]) of the same compound?
**A.** not accompanied by any change

**Q.** What about the K562 viability (K562 cells [3]) of the same compound?
**A.** did not affect

**Q.** What about the K562 cell proliferation (K562 cells [3]; seeded at 5×10^4 cells/ml, cell counts) of the same compound?
**A.** inhibited the proliferation of K562 cells in a dose dependent manner

**Q.** `CN([C@@H](Cc1ccc(OS(=O)(=O)c2cccc3cnccc23)cc1)C(=O)N1CCN(c2ccccc2)CC1)S(=O)(=O)c1cccc2cnccc12` [KN-62] was tested. Which “KN62-mediated differentiation of HL60R” value [4] did it give?
**A.** do not observe any

**Q.** And the “granulocytic differentiation of MPRO” value (MPRO cell line)?
**A.** enhanced

**Q.** What about the “differentiation of KCL-22” value (KCL-22 cells) of the same compound?
**A.** does not induce
